These results are taken from PMC5218480 (PLoS ONE, 2017).

This assay concerns MV-4-11 cells. The experiment in a line: Gene expression microarray analysis (Affymetrix PrimeView) and GSEA. The conditions noted are these: ProbeSet 11717308_a_at; LIST B. More on the design: RFU PODN (11730768_x_at) / Fold change /veh PODN (11730768_x_at) / RFU LINC00158 (11744669_a_at) / Fold change /veh LINC00158 (11744669_a_at) / RFU DUSP10 (11751237_a_at) / Fold change /veh DUSP10 (11751237_a_at) / RFU ID3 (11757404_x_at) / Fold change /veh ID3 (11757404_x_at) / RFU PLEKHG5 (11737974_s_at) / Fold change /veh PLEKHG5 (11737974_s_at) / RFU LRRC4B (11730491_at) / Fold change /veh LRRC4B (11730491_at) / RFU GIMAP4 (11747438_a_at) / Fold change /veh GIMAP4 (11747438_a_at) / RFU KRT8 (11758183_x_at) / Fold change /veh KRT8 (11758183_x_at) / RFU CNN1 (11734310_a_at) / Fold change /veh CNN1 (11734310_a_at) / RFU VPS37D (11726825_at) / Fold change /veh VPS37D (11726825_at) / RFU C10orf10 (11716522_x_at) / Fold change /veh C10orf10 (11716522_x_at) / RFU KIR2DL2 /// KIR2DL4 /// KIR2DL5A /// KIR2DL5B /// KIR2DS1 /// KIR2DS2 /// KIR2DS3 /// KIR2DS4 /// KIR3DL3 /// KIR3DL3 /// KIR3DS1 (11738374_at) / Fold change /veh KIR2DL2 /// KIR2DL4 /// KIR2DL5A /// KIR2DL5B /// KIR2DS1 /// KIR2DS2 /// KIR2DS3 /// KIR2DS4 /// KIR3DL3 /// KIR3DL3 /// KIR3DS1 (11738374_at) / RFU C1QL1 (11718748_at) / Fold change /veh C1QL1 (11718748_at) / RFU TMPRSS4 (11747572_a_at) / Fold change /veh TMPRSS4 (11747572_a_at) / RFU HAMP (11756126_x_at) / Fold change /veh HAMP (11756126_x_at) / RFU RNFT2 (11725882_a_at) / Fold change /veh RNFT2 (11725882_a_at) / RFU NR4A2 (11747474_a_at) / Fold change /veh NR4A2 (11747474_a_at) / RFU ABCC12 (11746883_a_at) / Fold change /veh ABCC12 (11746883_a_at) / RFU TMEM136 (11760407_x_at) / Fold change /veh TMEM136 (11760407_x_at) / RFU CLDN22 /// WWC2 (11732394_at) / Fold change /veh CLDN22 /// WWC2 (11732394_at) / RFU HLA-DPB1 (11760878_x_at) / Fold change /veh HLA-DPB1 (11760878_x_at) / RFU SPINT1 (11716480_a_at) / Fold change /veh SPINT1 (11716480_a_at) / RFU GAP43 (11754022_s_at) / Fold change /veh GAP43 (11754022_s_at) / RFU A4GNT (11735810_at) / Fold change /veh A4GNT (11735810_at) / RFU PRB3 (11715151_x_at) / Fold change /veh PRB3 (11715151_x_at) / RFU TUBB4B (11761932_at) / Fold change /veh TUBB4B (11761932_at) / RFU CAPN14 (11732068_a_at) / Fold change /veh CAPN14 (11732068_a_at) / RFU TMCC2 (11721928_a_at) / Fold change /veh TMCC2 (11721928_a_at) / RFU IRGQ (11745062_a_at) / Fold change /veh IRGQ (11745062_a_at) / RFU FAM174B (11720279_a_at) / Fold change /veh FAM174B (11720279_a_at) / RFU TMPRSS4 (11748680_a_at) / Fold change /veh TMPRSS4 (11748680_a_at) / RFU FAM212B (11763350_a_at) / Fold change /veh FAM212B (11763350_a_at) / RFU PLEKHG5 (11743358_a_at) / Fold change /veh PLEKHG5 (11743358_a_at) / RFU ZSCAN30 (11745921_a_at) / Fold change /veh ZSCAN30 (11745921_a_at) / RFU CMKLR1 (11741424_a_at) / Fold change /veh CMKLR1 (11741424_a_at) / RFU LOC101060620 /// MAPK8IP1 (11723275_at) / Fold change /veh LOC101060620 /// MAPK8IP1 (11723275_at) / RFU SPTSSB (11747773_x_at) / Fold change /veh SPTSSB (11747773_x_at) / RFU PRSS12 (11739890_at) / Fold change /veh PRSS12 (11739890_at) / RFU BIN1 (11741810_x_at) / Fold change /veh BIN1 (11741810_x_at) / RFU WNT11 (11732464_a_at) / Fold change /veh WNT11 (11732464_a_at) / RFU C10orf10 (11716521_a_at) / Fold change /veh C10orf10 (11716521_a_at) / RFU C5orf56 (11738089_at) / Fold change /veh C5orf56 (11738089_at) / RFU CYB561 (11721691_x_at) / Fold change /veh CYB561 (11721691_x_at) / RFU ANKRD19P (11752326_a_at) / Fold change /veh ANKRD19P (11752326_a_at) / RFU OR2T12 /// OR2T33 /// OR2T8 (11738714_s_at) / Fold change /veh OR2T12 /// OR2T33 /// OR2T8 (11738714_s_at) / RFU VCAN (11748164_a_at) / Fold change /veh VCAN (11748164_a_at) / RFU JSRP1 (11732532_at) / Fold change /veh JSRP1 (11732532_at) / RFU KRTAP10-11 (11738290_x_at) / Fold change /veh KRTAP10-11 (11738290_x_at) / RFU MYO3A (11730013_a_at) / Fold change /veh MYO3A (11730013_a_at) / RFU EBF3 (11725865_a_at) / Fold change /veh EBF3 (11725865_a_at) / RFU CAMK2N1 (11719241_x_at) / Fold change /veh CAMK2N1 (11719241_x_at) / RFU C5orf56 (11738088_a_at) / Fold change /veh C5orf56 (11738088_a_at) / RFU OLFML3 (11715873_a_at) / Fold change /veh OLFML3 (11715873_a_at) / RFU LOC100653217 /// NTM (11731650_a_at) / Fold change /veh LOC100653217 /// NTM (11731650_a_at) / RFU MAPK11 (11762145_a_at) / Fold change /veh MAPK11 (11762145_a_at) / RFU FIZ1 (11724087_x_at) / Fold change /veh FIZ1 (11724087_x_at) / RFU OASL (11726364_x_at) / Fold change /veh OASL (11726364_x_at) / RFU SOX15 (11748057_x_at) / Fold change /veh SOX15 (11748057_x_at) / RFU CD79A (11719716_a_at) / Fold change /veh CD79A (11719716_a_at) / RFU HIST1H1D (11736915_at) / Fold change /veh HIST1H1D (11736915_at) / RFU CASKIN2 (11723855_a_at) / Fold change /veh CASKIN2 (11723855_a_at) / RFU LOC730098 (11760151_x_at) / Fold change /veh LOC730098 (11760151_x_at) / RFU OR4N2 (11742367_at) / Fold change /veh OR4N2 (11742367_at) / RFU PRRT2 (11749266_a_at) / Fold change /veh PRRT2 (11749266_a_at) / RFU SNX32 (11753110_a_at) / Fold change /veh SNX32 (11753110_a_at) / RFU CDHR5 (11726645_a_at) / Fold change /veh CDHR5 (11726645_a_at) / RFU RCAN1 (11760418_a_at) / Fold change /veh RCAN1 (11760418_a_at) / RFU FAM167A (11723789_a_at) / Fold change /veh FAM167A (11723789_a_at) / RFU FAM26E (11764081_at) / Fold change /veh FAM26E (11764081_at) / RFU ISYNA1 (11749810_s_at) / Fold change /veh ISYNA1 (11749810_s_at) / RFU ACY1 (11761880_at) / Fold change /veh ACY1 (11761880_at) / RFU 11764098_at / Fold change /veh 11764098_at / RFU SAMD14 (11745864_x_at) / Fold change /veh SAMD14 (11745864_x_at) / RFU NPB (11741838_a_at) / Fold change /veh NPB (11741838_a_at) / RFU TMPRSS6 (11731388_a_at) / Fold change /veh TMPRSS6 (11731388_a_at) / RFU KRTAP10-2 (11738614_at) / Fold change /veh KRTAP10-2 (11738614_at) / RFU ARHGAP8 /// PRR5-ARHGAP8 (11727945_x_at) / Fold change /veh ARHGAP8 /// PRR5-ARHGAP8 (11727945_x_at) / RFU KRTAP5-7 /// NADSYN1 (11734609_at) / Fold change /veh KRTAP5-7 /// NADSYN1 (11734609_at) / RFU RASL12 (11751679_a_at) / Fold change /veh RASL12 (11751679_a_at) / RFU CDKN2B (11736163_a_at) / Fold change /veh CDKN2B (11736163_a_at) / RFU PRF1 (11729649_at) / Fold change /veh PRF1 (11729649_at) / RFU, ZNF638 /// ZNF638-IT1 / Fold change vs veh, ZNF638 /// ZNF638-IT1 / RFU, PANK3 / Fold change vs veh, PANK3 / RFU, SH3YL1 / Fold change vs veh, SH3YL1 / RFU, ZEB2 / Fold change vs veh, ZEB2 / RFU, NRIP1 / Fold change vs veh, NRIP1 / RFU, PTTG1IP / Fold change vs veh, PTTG1IP / RFU, CAPN2 / Fold change vs veh, CAPN2 / RFU, MED14 / Fold change vs veh, MED14 / RFU, SNORA58 / Fold change vs veh, SNORA58 / RFU, C1orf63 / Fold change vs veh, C1orf63 / RFU, LRRFIP1 / Fold change vs veh, LRRFIP1 / RFU, NDUFAF7 / Fold change vs veh, NDUFAF7 / RFU, SLC12A2 / Fold change vs veh, SLC12A2 / RFU, IBTK / Fold change vs veh, IBTK / RFU, ESF1 / Fold change vs veh, ESF1 / Fold change vs veh, TMEM50B / RFU, TAOK1 / Fold change vs veh, TAOK1 / RFU, ACBD3 / Fold change vs veh, ACBD3 / RFU, TMA16 / Fold change vs veh, TMA16 / RFU, RWDD3 / Fold change vs veh, RWDD3 / RFU, BCAT1 / Fold change vs veh, BCAT1 / RFU, EDEM3 / Fold change vs veh, EDEM3 / RFU, TMEM33 / Fold change vs veh, TMEM33 / RFU, WDR75 / Fold change vs veh, WDR75 / RFU, AHCTF1 / Fold change vs veh, AHCTF1 / RFU, TFRC / Fold change vs veh, TFRC / RFU, ZDHHC17 / Fold change vs veh, ZDHHC17 / RFU, NOM1 / Fold change vs veh, NOM1 / RFU, ARL8B / Fold change vs veh, ARL8B / RFU, ZBTB11 / Fold change vs veh, ZBTB11 / RFU, TAMM41 / Fold change vs veh, TAMM41 / RFU, KIAA1704 /// LOC100996395 / Fold change vs veh, KIAA1704 /// LOC100996395 / RFU, ING1 / Fold change vs veh, ING1 / RFU, TRMT61B / Fold change vs veh, TRMT61B / RFU, FUBP3 / Fold change vs veh, FUBP3 / RFU, TP53 / Fold change vs veh, TP53 / RFU, TNKS2 / Fold change vs veh, TNKS2 / RFU, ZFP14 / Fold change vs veh, ZFP14 / RFU, ACTR2 / Fold change vs veh, ACTR2 / RFU, PPP3R1 / Fold change vs veh, PPP3R1 / RFU, PIK3R1 / Fold change vs veh, PIK3R1 / RFU, HNRNPA1 / Fold change vs veh, HNRNPA1 / RFU, RNF170 / Fold change vs veh, RNF170 / RFU, ZNF28 / Fold change vs veh, ZNF28 / RFU, RNGTT / Fold change vs veh, RNGTT / RFU, OGT / Fold change vs veh, OGT / RFU, BRD1 / Fold change vs veh, BRD1 / RFU, MARS / Fold change vs veh, MARS / RFU, ZNF655 / Fold change vs veh, ZNF655 / RFU, FAHD1 / Fold change vs veh, FAHD1 / RFU, BDP1 / Fold change vs veh, BDP1 / RFU, LRRCC1 / Fold change vs veh, LRRCC1 / RFU, ARID1A / Fold change vs veh, ARID1A / RFU, ZNF146 / Fold change vs veh, ZNF146 / RFU, ZNF330 / Fold change vs veh, ZNF330 / RFU, GPN3 / Fold change vs veh, GPN3 / RFU, C9orf123 / Fold change vs veh, C9orf123 / RFU, N4BP2L2 / Fold change vs veh, N4BP2L2 / RFU, ARFIP1 / Fold change vs veh, ARFIP1 / RFU, FAM179B / Fold change vs veh, FAM179B / RFU, BCL10 / Fold change vs veh, BCL10 / RFU, UHRF1BP1L / Fold change vs veh, UHRF1BP1L / RFU, BET1 / Fold change vs veh, BET1 / RFU, CNOT2 / Fold change vs veh, CNOT2 / RFU, ZNF268 / Fold change vs veh, ZNF268 / Fold change vs veh, ZNF507 / RFU, DGCR2 / Fold change vs veh, DGCR2 / RFU, WDSUB1 / Fold change vs veh, WDSUB1 / Fold change vs veh, HSP90B1 /// MIR3652 / RFU, ADSS / Fold change vs veh, ADSS / RFU, GK / Fold change vs veh, GK / RFU, ZNF148 / Fold change vs veh, ZNF148 / RFU, TAF9 / Fold change vs veh, TAF9 / RFU, SLC1A5 / Fold change vs veh, SLC1A5 / RFU, SLMO2 / Fold change vs veh, SLMO2 / RFU, ABCC4 / Fold change vs veh, ABCC4 / RFU, LOC101060439 /// RAP1B / Fold change vs veh, LOC101060439 /// RAP1B / RFU, RFX7 / Fold change vs veh, RFX7 / RFU, GTPBP10 / Fold change vs veh, GTPBP10 / RFU, CNEP1R1 / Fold change vs veh, CNEP1R1 / RFU, BIVM-ERCC5 /// ERCC5 / Fold change vs veh, BIVM-ERCC5 /// ERCC5 / RFU, ILF3 / Fold change vs veh, ILF3 / RFU 11762660_at / Fold change /veh 11762660_at / RFU VCAN (11757783_s_at) / Fold change /veh VCAN (11757783_s_at) / RFU DDX43 (11728927_at) / Fold change /veh DDX43 (11728927_at) / RFU KRT8 (11758188_x_at) / Fold change /veh KRT8 (11758188_x_at) / RFU NKD1 (11759106_at) / Fold change /veh NKD1 (11759106_at) / RFU SRD5A1 (11742802_a_at) / Fold change /veh SRD5A1 (11742802_a_at) / RFU TPSAB1 /// TPSB2 (11721975_s_at) / Fold change /veh TPSAB1 /// TPSB2 (11721975_s_at) / RFU GSTM3 (11746129_a_at) / Fold change /veh GSTM3 (11746129_a_at) / RFU IL23R (11737362_x_at) / Fold change /veh IL23R (11737362_x_at) / RFU TMEM51 (11727254_a_at) / Fold change /veh TMEM51 (11727254_a_at) / RFU PIWIL2 (11732686_x_at) / Fold change /veh PIWIL2 (11732686_x_at) / RFU ORM1 (11744905_x_at) / Fold change /veh ORM1 (11744905_x_at) / RFU CCDC152 (11743942_at) / Fold change /veh CCDC152 (11743942_at) / RFU ECM1 (11717891_a_at) / Fold change /veh ECM1 (11717891_a_at) / RFU IL23R (11748794_a_at) / Fold change /veh IL23R (11748794_a_at) / RFU TNFAIP8L3 (11732012_x_at) / Fold change /veh TNFAIP8L3 (11732012_x_at) / RFU MBOAT4 (11741988_at) / Fold change /veh MBOAT4 (11741988_at) / RFU 11764193_at / Fold change /veh 11764193_at / RFU TMEM53 (11763286_at) / Fold change /veh TMEM53 (11763286_at) / RFU MAGEB2 (11727129_at) / Fold change /veh MAGEB2 (11727129_at) / RFU TMEM200A (11744735_a_at) / Fold change /veh TMEM200A (11744735_a_at) / RFU CCDC152 (11751479_a_at) / Fold change /veh CCDC152 (11751479_a_at) / RFU FAM211A (11726209_a_at) / Fold change /veh FAM211A (11726209_a_at) / RFU RGS16 (11746705_a_at) / Fold change /veh RGS16 (11746705_a_at) / RFU VCAN (11755009_s_at) / Fold change /veh VCAN (11755009_s_at) / RFU RHOB (11743442_s_at) / Fold change /veh RHOB (11743442_s_at) / RFU RGS16 (11720943_a_at) / Fold change /veh RGS16 (11720943_a_at) / RFU RGS16 (11720944_at) / Fold change /veh RGS16 (11720944_at) / RFU, VPS4B / Fold change vs veh, VPS4B / RFU, CREB1 / Fold change vs veh, CREB1 / RFU, DNAJC13 / Fold change vs veh, DNAJC13 / RFU, GNAQ / Fold change vs veh, GNAQ / RFU, CDK5R1 / Fold change vs veh, CDK5R1 / RFU, ZRANB3 / Fold change vs veh, ZRANB3 / RFU, CUL4A / Fold change vs veh, CUL4A / RFU, CCNY / Fold change vs veh, CCNY / RFU, UFL1 / Fold change vs veh, UFL1 / RFU, COG3 / Fold change vs veh, COG3 / RFU, DIAPH2 / Fold change vs veh, DIAPH2 / RFU, SKA2 / Fold change vs veh, SKA2 / RFU, AFF3 / Fold change vs veh, AFF3 / RFU, LMF1 / Fold change vs veh, LMF1 / RFU, IPO11 / Fold change vs veh, IPO11 / RFU, DFFB / Fold change vs veh, DFFB / RFU, FOXP1 / Fold change vs veh, FOXP1 / RFU, CARD8 / Fold change vs veh, CARD8 / RFU, STRN3 / Fold change vs veh, STRN3 / RFU, ADK / Fold change vs veh, ADK / RFU, RASSF2 / Fold change vs veh, RASSF2 / RFU, WIPF1 / Fold change vs veh, WIPF1 / RFU, LARP1B / Fold change vs veh, LARP1B / RFU, RASA1 / Fold change vs veh, RASA1 / RFU, RB1 / Fold change vs veh, RB1 / RFU, PPFIA1 / Fold change vs veh, PPFIA1 / RFU, MAT2A / Fold change vs veh, MAT2A / RFU, CCT5 / Fold change vs veh, CCT5 / RFU, WDR92 / Fold change vs veh, WDR92 / RFU, CUX1 / Fold change vs veh, CUX1 / RFU, TTC7A / Fold change vs veh, TTC7A / RFU, TMEM135 / Fold change vs veh, TMEM135 / RFU, DEPTOR / Fold change vs veh, DEPTOR / RFU, CPM / Fold change vs veh, CPM / RFU, DNAJB6 / Fold change vs veh, DNAJB6 / RFU, CACNA2D3 / Fold change vs veh, CACNA2D3 / RFU, DTX4 / Fold change vs veh, DTX4 / RFU, TFCP2 / Fold change vs veh, TFCP2 / RFU, GMCL1 /// GMCL1P1 / Fold change vs veh, GMCL1 /// GMCL1P1 / RFU, AEBP2 / Fold change vs veh, AEBP2 / RFU, SNHG1 /// SNORD22 /// SNORD25 /// SNORD26 /// SNORD27 /// SNORD28 /// SNORD29 /// SNORD31 / Fold change vs veh, SNHG1 /// SNORD22 /// SNORD25 /// SNORD26 /// SNORD27 /// SNORD28 /// SNORD29 /// SNORD31 / Fold change (Aza/veh), C12orf56 (ProbeSet 11735607_a_at) / Fold change (ACY-1035/veh), C12orf56 (ProbeSet 11735607_a_at) / Fold change (Aza/veh), FGFR1OP (ProbeSet 11751329_s_at) / Fold change (ACY-1035/veh), FGFR1OP (ProbeSet 11751329_s_at) / Fold change (Aza/veh), VPS36 (ProbeSet 11739960_a_at) / Fold change (ACY-1035/veh), VPS36 (ProbeSet 11739960_a_at) / RFU SYPL1 (11715823_x_at) / Fold change /veh SYPL1 (11715823_x_at) / RFU IGFBP7 (11715501_s_at) / Fold change /veh IGFBP7 (11715501_s_at) / RFU REEP3 (11722064_at) / Fold change /veh REEP3 (11722064_at) / RFU IGLL1 (11728026_x_at) / Fold change /veh IGLL1 (11728026_x_at): dose or concentration left out as unconfirmed. Format: cell-based, human.

For `Nc1ccc(-c2cccs2)cc1NC(=O)c1ccc2c(c1)cc(C1CC1)n2CCN1CCOCC1` [ACY-1035], the “RFU, WDR75” value stood at 291.65 RFU.
